{"source": "PubChem BioAssay AID1745859", "biological_target": "Equilibrative nucleoside transporter 1 (Homo sapiens) (UniProt Q99808)", "sequence (Q99808 whole entry, looked up)": "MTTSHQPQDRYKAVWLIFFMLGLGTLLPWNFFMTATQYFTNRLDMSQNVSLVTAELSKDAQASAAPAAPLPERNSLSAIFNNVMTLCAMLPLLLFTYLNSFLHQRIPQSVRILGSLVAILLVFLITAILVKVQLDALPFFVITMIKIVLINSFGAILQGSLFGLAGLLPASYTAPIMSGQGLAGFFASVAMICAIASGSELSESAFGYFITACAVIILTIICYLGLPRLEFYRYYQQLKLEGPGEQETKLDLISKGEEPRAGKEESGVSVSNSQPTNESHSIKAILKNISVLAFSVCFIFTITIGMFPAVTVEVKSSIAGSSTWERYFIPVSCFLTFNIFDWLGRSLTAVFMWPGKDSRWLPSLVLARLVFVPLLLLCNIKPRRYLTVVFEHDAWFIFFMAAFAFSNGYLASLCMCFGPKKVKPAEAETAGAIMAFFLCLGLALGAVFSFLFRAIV", "assay": "PubChem AID 1745859", "details": "U2OS JumpIn-ENT1 cells, TRACT impedance, adenosine response"}
{"compound": "NC(=O)C1CN(CCCCC(c2ccc(F)cc2)c2ccc(F)cc2)CCN1CC(=O)Nc1c(Cl)cc(N)cc1Cl", "note": "(stereo unspecified)", "values": [{"measurement": "IC50", "result": 5.31, "unit": "nM"}]}
